According to publication PMC6486608, “A cell-penetrating peptide blocks Toll-like receptor-mediated downstream signaling and ameliorates autoimmune and inflammatory diseases in mice” (Experimental & Molecular Medicine, 2019):
pKd: −log10 of the molar value. Ends that are not written are not given here.

How the values were obtained:
[1] = system: CIA mouse model (DBA/1J mice); assay: RA in a model of CIA; assay type: in vivo; details: i.p. daily
Procedure: All animal care and experimental procedures were conducted in accordance with the National Institute of Health Guide for the Care and Use of Laboratory Animals and were approved by the Animal Care and Use Committee of Kyung Hee University [Permit number: KHUASP(SE)-15-115]. Male DBA/1J mice weighing 20–23 g (6–7 weeks old) were purchased from Central Lab Animal Inc. (Seoul, Korea). The mice were housed in a limited-access rodent facility at 22–24 °C with up to four animals per polycarbonate cage under a 12:12-h light/dark cycle with free access to pelleted food and water. CIA was implemented according to the protocol previously described. Briefly, the mice were immunized at the base of the tail with a mixture of 100 μg of chicken type II collagen (CII, Sigma-Aldrich) and an equal volume of complete Freund’s adjuvant (Sigma-Aldrich); this time point was designated as day 0. The mice were then given a booster (second) injection of the mixture on day 14. […] To evaluate arthritis progression in the CIA mice, body weight, paw volume, squeaking score, and the arthritic index were measured. The mouse body weights were measured using a digital balance (Mettler-Toledo Inc., Columbus, OH, USA). Joint pain in the hindlimb was evaluated by scoring squeaking during forced flexion and extension of the hindlimb ankle joint 10 times every 5 s. […] Total numbers of vocalizations detected by the observer were then calculated as the squeaking score. Paw volume was measured by the volume displacement of an electrolyte solution using a water-displacement plethysmometer (Ugo-Basile Biological Research Apparatus Co., Comerio-Varese, Italy) as described elsewhere[13],[14]. The hind paw was immersed to the level of the hairy skin, and the volumes were read on a digital display. Paw volume was expressed as a relative value compared with that on day 0, which was defined as 1.0 (100%). […]

[2] = biological target: T1, BB loop (710-RDFIPGVAIAA-720) of the TLR4-TIR domain (Homo sapiens, UniProt O00206); assay: SPR, BB loop; assay type: binding
T1 construct: Synthetic peptides encoding the BB loop (710-RDFIPGVAIAA-720) of the TIR domain were immobilized; purchased Peptron, Inc. (Daejeon, Korea); host or cells: chemical synthesis
Procedure: The SPR experiments were conducted using a ProteOn XPR36 instrument (Bio-Rad Laboratories, Inc.) with a ProteOn NLC sensor chip. PBST served as running buffer, and 0.85% phosphoric acid or PBST was used for regeneration. Synthetic peptides encoding the BB loop (710-[…]-720) of the TIR domain were immobilized by NeutrAvidin bound to the GLC polymer layer onto surfaces of an NLC sensor chip as described in the protocol. Different concentrations of TIP1 (12.5, 25, or 50 μM) were run into the chip to check their binding with the immobilized peptides. Running buffer was injected into an empty channel as a reference. The dissociation was monitored for 5 min, and the chip was regenerated for the second round. ProteOn Manager software (version 2.0) was employed to analyze the data. The binding curves were processed for the start injection alignment and baseline. A reference-subtracted sensorgram was fitted globally to the curves describing a homogeneous 1:1 model. Data from various doses of TIP1 were grouped together to fit the kinetic rate constants (ka and kd). The equilibrium dissociation constant, KD, was calculated according to the equation KD = kd/ka. Surface plasmon resonance (SPR) is a powerful technique used for high-throughput screening and is considered a potent tool for drug discovery. SPR can provide detailed information on peptide-receptor binding kinetics or small-molecule-protein or protein-protein interactions. […] The association rate constant (ka), dissociation rate constant (kd), and equilibrium dissociation constant (KD) of TIP1 were measured in a dose-dependent manner (Fig. 4a). […] Later, the fluorescence intensities of TIP1-FITC, TLR4, and MyD88 were measured by immunofluorescent staining and confocal microscopy. […] The expression levels of TLR4 and MyD88 and the localization of TIP1-FITC were determined by immunofluorescent staining and confocal microscopy. Orthogonal projections, 3D image reconstruction, and fluorescence intensity profiles of confocal images show localization of TIP1-FITC and TLR4.

Row | kon ([2]; homogeneous 1:1 model, global fit of 12.5, 25, 50 µM, read-out: ka (association rate constant)) [M⁻¹ s⁻¹] | koff ([2]; homogeneous 1:1 model, global fit of 12.5, 25, 50 µM, read-out: kd (dissociation rate constant)) [s⁻¹] | pKd ([2]; printed in figure 4a, calculated as kd/ka) | Compound | body weight, average ([1]; TIP1 10 nmol/g or prednisolone 5 mg/kg, CIA 16.9 g, normal 21.9 g) [g] | arthritis index score ([1]; TIP1 10 nmol/g or prednisolone) | squeaking and paw volume increase ([1]; TIP1 10 nmol/g or prednisolone)
1 | – | – | – | C[C@]12C=CC(=O)C=C1CC[C@@H]1[C@@H]2[C@@H](O)C[C@@]2(C)[C@H]1CC[C@]2(O)C(=O)CO [prednisolone] | 21.0 | significantly decreased the index score | highly increased in the CIA mice compared with normal mice but not in the TIP1 (10 nmol/g)- or prednisolone-injected mice
2 | 187 | 0.00782 | 4.38 | RQIKIWFQNRRMKWKKSHCRVLLI [TIP1] | – | – | –
